Data as given in EP1321169A1, “Combination of a serotonin receptor antagonist with a histidine decarboxylase inhibitor as a medicament” (Biofrontera Pharmaceuticals AG, priority 2001, dated 2003).

Assays:
[1] = target: T1, human Histamine H2 receptor (Homo sapiens, UniProt P25021); assay: Cloned human H2 receptor binding assay, [3H]-thiotidine, COS-7 cells; conditions: n.A. = no affinity (= no inhibition of histamine activity) detected, read-out: Receptor Affinity: pK Values, measured receptor H2 (converted)
T1 construct: expressed in transfected cells; host or cells: COS-7 (transient)
T1 sequence (P25021 whole entry): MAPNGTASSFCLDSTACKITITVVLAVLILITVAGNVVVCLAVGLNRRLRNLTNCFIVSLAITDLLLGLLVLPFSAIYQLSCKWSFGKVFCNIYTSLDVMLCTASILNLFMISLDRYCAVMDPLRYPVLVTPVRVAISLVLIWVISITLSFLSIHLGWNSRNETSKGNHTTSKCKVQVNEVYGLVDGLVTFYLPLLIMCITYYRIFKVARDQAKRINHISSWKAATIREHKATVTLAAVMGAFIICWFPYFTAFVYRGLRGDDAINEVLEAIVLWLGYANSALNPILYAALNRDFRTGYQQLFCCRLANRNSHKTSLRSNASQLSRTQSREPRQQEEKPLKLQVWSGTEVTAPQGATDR
Experimental: (§1) COS-7 cells were transiently transfected with an expression plasmid pCineohH1, pCineohH2, pCineohH3 and pCineohH4 encoding the human Histamine H1, H2 H3 or H4 receptor, respectively. Transfected cells were harvested after 48 h, homogenized in ice-cold 50 mM Na2/potassium phosphate buffer (pH 7.4) and used for radioligand binding studies. Cell homogenates (40 - 50 µg of protein) were incubated for 30 min at 25°C in 50 mM Na2/potassium phosphate buffer (pH 7.4) in 400 µl with the various concentrations of either [^3H]-mepyramine, [^3H]-thiotidine, [^3H]-R-α-Methylhistamine, and [^3H]-pyramilamine for cells expressing recombinant human H1, H2, H3 and H4 receptors, respectively. The nonspecific binding was defined in the presence of 1 µM mianserin. In displacement studies, cell homogenated were incubated either with 1 nM [^3H]-mepyramine, 15 nM [^3H]-thiotidine, 0.5 nM [^3H]-R-α-Methylhistamine, or 15 nM [^3H]-pyramilamine and increasing concentrations of competing ligands. The incubations were stopped by rapid dilution with 3 ml of ice-cold 50 mM Na2/potassium phosphate buffer (pH 7.4). The bound radioactivity was separated by filtration through Whatman GF/C filters that had been treated with 0.3 % polyethyleneimine. Filters were washed twice in 3 ml of buffer and radioactivity retained on the filters was measured by liquid scintillation counting.

[2] = tested on: human histamine receptors; assay: Cloned human H1, H2, H3 and H4 receptor binding assay (summary statement); conditions: statement in words
Experimental: as §1

[3] = repeated administration; cited from earlier work

Compound | Ki [1] [nM] | affinity for the human histamine receptors [2] | sedative effects [3] | tissue histamine content [3]
CCOc1ccc2c(c1)Sc1cccc(O)c1C2=C1CCN(C)CC1 [4-(6-Ethoxy-1-hydroxy-thioxanthen-9-yliden)-1-methyl-piperidine] | 3240 | – | – | –
CCOc1ccc2c(c1)Sc1cccc(OC)c1C2=C1CCN(C)CC1 [4-(6-Ethoxy-1-methoxy-thioxanthen-9-yliden)-1-methyl-piperidine] | 2040 | – | – | –
COc1cccc2c1C(=C1CCN(C)CC1)c1ccc(C(C)C)cc1S2 [4-(6-Isopropyl-1-methoxy-thioxanthen-9-yliden)-1-methyl-piperidine] | 1050 | – | – | –
N[C@@](CF)(Cc1cnc[nH]1)C(=O)O [FMH, (S)-α-fluoromethylhistidine] | – | low affinity | only very mild sedative effects | strong reduction
